For two molecules, Activity and IC50 results are on record in ChEMBL document CHEMBL1144348, “Mechanism of cytotoxicity of copper(I) complexes of 1,2-bis(diphenylphosphino)ethane” (J Med Chem, 2005).

SMILES strings stand for the structures. Values after ≈ are worked out from the molar mass of the structure shown.

In test [1] the test system is NCI-H460. In words: Percent of cells with COMET measured after single cell gel electrophoresis with the compound. It is filed as functional, Homo sapiens.
Test [2] has as its system NCI-H460. The test is described as follows: Inhibitory concentration against human lung carcinoma cell line H460 after 48 hr in MTT assay. It is filed as functional, cell-based. The conditions noted are these: NCI-H460, 48 h. For orientation: Tetrazolium assays rely on reduction of a dye to a coloured formazan, in cell work by metabolically active cells.

As usually defined, the IC50 is the point on the concentration scale where inhibition reaches its midpoint. High values mean weaker potency, low ones greater potency. `COc1cccc2c1C(=O)c1c(O)c3c(c(O)c1C2=O)C[C@@](O)(C(=O)CO)C[C@@H]3O[C@H]1C[C@H](N)[C@H](O)[C@H](C)O1` [DOXORUBICIN] showed an Activity in test [1] of 93.55%. This molecule also showed an IC50 in test [2] of 0.05 µg/mL (≈ 0.092 µM).
In turn, `c1ccc(P(CCP(c2ccccc2)c2ccccc2)c2ccccc2)cc1` had an IC50 in test [2] of 0.25 µg/mL (≈ 0.627 µM).
